Measurements taken from US8748485B2, “Compound and medical use thereof” (Ono Pharmaceuticals Co., Ltd., priority 2010, dated 2014).

What was measured:
[1] = Kinetic study in dogs (oral administration, plasma levodopa); settings: dog, in vivo, po, 3 mg/kg
Source text: The relationship between the blood concentration of levodopa and side effects in patients who take levodopa has been gradually elucidated. […] In order to reduce the number of doses of levodopa and avoid side effects such as dyskinesia and wearing-off in patients who take levodopa, it is necessary to maintain the blood concentration of levodopa within a therapeutic range as long as possible.
These levodopa prodrugs are prodrugs containing an ester bond, and therefore, it is considered that among a number of enzymes, carboxyesterase plays the most important role in the process of producing levodopa by metabolizing the compound after the compound is administered in vivo. Therefore, as an animal species to be used for performing a kinetic study, dogs in which the organ distribution of carboxyesterase is most similar to that of humans were selected as subjects for evaluation.
The thus obtained drug solution was administered by gavage through a gastric tube into the stomach of dogs (male beagle dogs) which were fasted from the day before the administration. At 15 and 30 minutes, and 1, 2, 4, 6, and 8 hours after administration of the drug solution, 1 mL of blood was collected from a cephalic vein with a heparinized syringe. Immediately after the collection, the collected blood was centrifuged in a desktop centrifuge at 14500 rpm for 45 seconds. Then, acetonitrile containing 0.1125% formic acid was added to the thus obtained plasma in an amount as twice as large as the volume of the plasma, followed by stirring, and then, the resulting sample was stored at −20° C. until measurement.
The sample was thawed on the measurement day, followed by stirring and centrifugation at 13000 rpm for 3 minutes (at 4° C.). The resulting supernatant was filtered and the filtrate was analyzed by LC/MS/MS. The analysis was performed by LC/MS/MS under the following conditions.
Measurement Apparatus: API-5000 (manufactured by Applied Biosystems, Inc.)
Analytical column: CAPCELL PAK CR (1:4) (4.6 mm, I.D.×250 mm, 5 μm)
Analytical column temperature: 40° C.
Mobile phase: A: 5 mM ammonium formate (pH 3.9), B: acetonitrile (A/B=17/3)
Detection (levodopa): m/z (precursor): 196.19, m/z (product): 134.99
DP (Declustering Potential): −60
CE (Collision Energy): −25
CXP (Collision Cell Exit Potential): −17
Incidentally, the numerical value in the column which indicates the dose expressed in terms of levodopa refers to a dose equivalent to that of levodopa.

[2] = test system: p53R2; assay: Mutagenicity assay using mammalian cells (NESMAGET method); assay type: cell-based
Description: In the treatment of Parkinson's disease and/or Parkinson's syndrome, there is a possibility that a levodopa prodrug is continued to be taken over a long period of time of several years to several decades. Therefore, an evaluation was carried out as to whether or not the compound of the present invention has mutagenicity by a mutagenicity assay using mammalian cells.
A mutagenicity assay using mammalian cells was carried out as a commissioning test to be undertaken by Nissin Foods Holdings Co., Ltd. The present method also called NESMAGET method is a method in which the expression of p53R2 which is a DNA repair gene is detected by luciferase activity, and the specific experimental technique is described in JP-A-2005-000024 and Japanese Patent No. 4243716. In the determination as to whether or not the result of this test was positive, the luciferase activity of p53R2 in the case of a vehicle control (0.3% dimethylsulfoxide) was taken as 100%, and a concentration at which a relative luciferase activity exceeded 200% was determined to be “concentration at which mutagenicity was determined to be positive”.

[3] = test system: rat model injected with 6-hydroxydopamine into the medial forebrain bundle; assay: Rotation test in model injected with 6-hydroxydopamine into medial forebrain bundle; assay type: in vivo, rats (male Crl:CD(SD)IGS); settings: 6-OHDA rats
Source text: In the experiment, male Crl:CD(SD)IGS rats (Charles River Japan, Inc.) supplied at 5 weeks of age were used. The rats were housed in Econ cages (4 or less rats per cage) and were raised by giving free access to solid feed CRF-1 (Oriental Yeast Co., Ltd.) and tap water (in a water bottle) until they were subjected to the experiment. When acclimation after shipping was completed, each of the Crl:CD(SD)IGS rats at 6 weeks of age was anesthetized with pentobarbital sodium (Somnopentyl (registered trademark) injectable solution, 35 mg/kg, intraperitoneal injection). Subsequently, for the purpose of preventing damage to norepinephrine neurons by 6-hydroxydopamine (6-OHDA), desipramine (25 mg/kg) was intraperitoneally injected, and the rat was held and fixed by a brain fixation device. A small bone window was opened with a hand drill at a desired site, and 6-OHDA was injected into the medial forebrain bundle according to the brain atlas of Paxinos and Watson using a 30 G cannula (Brain Science Idea. Co. Ltd.) with a needle tip cut at an angle of 45° (site of injection: A=−4.5 mm, L=+1.2 mm, and V=−7.8 mm with respect to the bregma, injection amount: 8 μg/4 μL/8 min/site in each case). […] Thereafter, the burr hole was closed with an instant glue, and then sutured and disinfected with iodine tincture. […] In a rotation test, a device configured such that a black plastic circular cylinder having a diameter of 30 cm and a height of 35 cm was placed upright in a black-painted bowl having an opening diameter of 35 cm and a bottom diameter of 17 cm was used (the height of the curve from the bottom of the bowl to the bottom edge of the cylinder was set to 7 cm). The rat was placed in the device (one rat per device) and acclimated to the device for 30 minutes. Thereafter, a test substance was administered to the rat, and the rat was returned to the same device and videotaped. […] As for the number of rotations, a 360° rotation in one direction was determined to be one rotation. In the case where the direction (body's direction of movement or movement direction) was changed during rotation, the rotation was not included in the count. […] Incidentally, in each case, benserazide which is a dopa decarboxylase inhibitor (8 mg/kg) was orally administered concomitantly. […] In addition, the respective values are each a mean of the values obtained using 11 rats in each group and its standard error.

[4] = Kinetic study in dogs (combination use with dopa decarboxylase inhibitor carbidopa); assay type: in vivo, dogs (male beagle dogs); settings: dogs given carbidopa 60 mg/kg; oral Example 5 18.6 mg/kg (6 mg/kg expressed in terms of levodopa)
Description: (3) Kinetic Study in Dogs (Combination Use with Dopa Decarboxylase Inhibitor (DCI)) […] As the DCI, carbidopa was used. […] The preparation of an analytical sample and analysis were carried out according to the method described in the same section in the Biological Example 1(1).

[5] = Simulation of kinetics in human blood on basis of results of kinetic study in dogs; settings: simulated in humans versus SINEMET 100 mg tablet
Description: (4) Simulation of Kinetics in Human Blood on Basis of Results of Kinetic Study in Dogs
For the purpose of validating whether or not the effect of releasing levodopa over a long period of time of the compound of the present invention observed in the kinetic study in dogs is also observed in humans, a simulation of kinetics in human blood was carried out on the basis of the results of the kinetic study in dogs described in the above section (3).
By using the values obtained in the kinetic study in dog blood in the above section (3), a prediction model that simulates the kinetics in human blood was constructed.
Specifically, the blood concentration-time profile of levodopa or the compound of the present invention obtained in the kinetic study in dogs was input into Phoenix WinNonlin version 6.1 (Pharsight Corporation), which is kinetic analysis software, and the fitting of the plasma concentration of levodopa was carried out, whereby a prediction model that simulates the blood kinetics of levodopa was constructed.
Into this prediction model, the values of blood kinetics when a levodopa preparation was administered to humans described in the literature (Br. J. Clin. Pharm., 1989, Vol. 28, pp. 61-69, D. R. C. Robertson et al.) were input, and the kinetics of the compound of the present invention in human blood was simulated. […]

AUC (area under the blood concentration-time curve of levodopa) [1]: 0.89 μg^+ hr/mL
Cmax/C6 hr (ratio of maximum plasma concentration and plasma concentration at 6 hours after oral administration, levodopa) ([1]; male, beagle): 8.0
time after administration at which plasma levodopa reached Cmax [4]: 4 h
time in the therapeutic range in humans relative to the currently available levodopa preparation [5]: about 3.4 times
SMILES: CC(C)(OC(=O)c1ccccc1)C(=O)Oc1ccc(C[C@H](N)C(=O)O)cc1OC(=O)C(C)(C)OC(=O)c1ccccc1.Cl [Example 5, (2S)-2-Amino-3-(3,4-bis((2-(benzoyloxy)-2-methylpropanoyl)oxy)phenyl)propanoic acid hydrochloride]
Mutagenicity assay (NESMAGET) Concentration at which mutagenicity was determined to be positive ([2]; concentration at which relative luciferase activity of p53R2 exceeded 200% (vehicle control 0.3% dimethylsulfoxide = 100%)): >200 µg/mL
determination of mutagenicity ([2]; positive = relative luciferase activity of p53R2 exceeded 200%, compound of the present invention up to 200 μg/mL): mutagenicity was not observed
lapse from administration after which the number of rotations began to increase ([3]; oral Example 5 100 mg/kg expressed in terms of levodopa, benserazide 8 mg/kg): ≥ 60 min
time after administration at which the number of rotations reached a maximum value ([3]; oral, levodopa 30 mg/kg or Example 5 100 mg/kg expressed in terms of levodopa, benserazide 8 mg/kg): 140 min
maximum value of the number of rotations per 10 minutes ([3]; oral, levodopa 30 mg/kg or Example 5 100 mg/kg expressed in terms of levodopa, benserazide 8 mg/kg concomitantly, N=11): ≥ 90 times
